# In US11292787B2, “Five-membered-fused-six-membered aza-aromatic ring compound, preparation method thereof, pharmaceutical composition and application thereof” (XIAMEN UNIVERSITY, priority 2017, dated 2022):
# Target: T1, K-Ras protein (Homo sapiens, UniProt P01116, G12V)
# T1 construct: in SW620 cells, compound I-a-1 can effectively enhance the degradation of endogenous K-RAS-G12V proteins; endogenous in cells; host or cells: SW-620
# Assay: K-Ras protein degradation rate by Western blot in SW-620 cells
# Type: cell-based
# Settings: 10 μM, SW-620 cells, 24 h, Western blot, relative to DMSO control; read-out: Degradation rate of compounds at 10 μM on Ras protein (%)
# Method: Inhibitory activity of compounds on K-RAS was evaluated by the degradation rate of protein level of administration group relative to control group (Cell Rep 2014, 7, 871-882).
# The specific method was as follows:
# 1. Cell plating: SW-620 cells in logarithmic growth phase were inoculated into a 24-well plate at 2×10^4/well, and cultured in a 37° C., 5% CO2 incubator.
# 2. Administering drug to cells: after 24 h of culture, various drug stocks […]; the original solution in the 24-well plate was discarded, to which was added the obtained drug solution, with the DMSO group as the blank control; after the drug solution was added, the 24-well plate was transferred to the 37° C. CO2 incubator to continue the culture.
# 3. Detection of K-Ras protein level: after 24 h of administration and culture, the liquid in the well was discarded, the cells were routinely collected, and rinsed twice with 1×PBS, a cell lysate was added to extract the total cellular protein, and the protein concentration was determined by BCA method. 30 μg of the protein sample was taken for SDS-polyacrylamide gel electrophoretic transmembrane, the membrane was blocked sequentially, incubated with K-Ras antibody (1:1000) and internal reference antibody β-actin (1:2000) respectively overnight at 4° C., rinsed with TBST for 5 min×3 times, then incubated with the addition of the corresponding horseradish peroxidase-labeled secondary antibody (1:5000) for 1-2 h, and rinsed with TBST for 5 min×3 times. Finally, chemiluminescence image was acquired using Image Lab software.
# 4. Calculation of single-point K-Ras protein degradation rate: quantitative and calibration analysis of K-Ras and β-actin were conducted using Image-Lab software, and then the intracellular K-Ras degradation rate was calculated according to the following formula: single-point K-Ras protein degradation rate (%)=(control group−administration group)/control group×100%. The drug with degradation rate ≥20% was selected for soft agar experiment.
# T1 sequence (P01116 1-188 isoform P01116-2 G12V): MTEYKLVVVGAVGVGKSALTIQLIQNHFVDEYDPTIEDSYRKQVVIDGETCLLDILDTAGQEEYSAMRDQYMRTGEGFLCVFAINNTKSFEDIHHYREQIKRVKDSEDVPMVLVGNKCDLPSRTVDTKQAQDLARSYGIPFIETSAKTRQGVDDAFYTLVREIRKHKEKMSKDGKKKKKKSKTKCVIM
row,SMILES,percent K-Ras protein degradation (single point) at 10 µM
1,O=C(NCc1c(F)cccc1Cl)c1coc(-c2n[nH]c3ccccc23)c1 [I-c-1],11%
2,O=C(NCc1ccc(F)c(C(F)(F)F)c1)c1c[nH]c(-c2n[nH]c3ncccc23)c1 [III-f-57],70%
3,O=C(NC1CCCCC1)c1c[nH]c(-c2cnc3cnccn23)c1 [VII-b-3],10%
4,O=C(NCc1c(F)cccc1Cl)c1ccc(-c2c[nH]c3ncccc23)s1 [II-e-1],15%
5,O=S(=O)(Cc1c(Cl)cccc1Cl)c1c[nH]c(-c2n[nH]c3ncccc23)c1 [III-h-3],18%
6,O=C(Nc1cccc(C(F)(F)F)c1)c1c[nH]c(-c2n[nH]c3ncccc23)c1 [III-f-11],13%
7,COc1ccccc1CNC(=O)c1c[nH]c(-c2n[nH]c3ncccc23)c1 [III-f-54],50%
8,O=C(NCc1c(F)cccc1Cl)c1ccc(-c2cnc3cnccn23)cc1 [VII-e-1],30%
9,O=C(Nc1ccccc1)c1csc(-c2n[nH]c3ncccc23)c1 [III-a-2],9%
10,O=C(NCc1c(F)cccc1Cl)c1ccc(-c2n[nH]c3ccccc23)[nH]1 [I-g-1],30%
11,O=C(NCc1cc(C(F)(F)F)ccc1F)c1csc(-c2cnc3cccnn23)c1 [VIII-a-3],50%
12,O=C(NCc1c(F)cccc1Cl)c1ccc(-c2cnc3cnccn23)s1 [VII-f-1],25%
13,O=C(NCc1ccc(Cl)cc1)c1c[nH]c(-c2n[nH]c3ncccc23)c1 [III-f-6],15%
14,Nc1cccc(CNC(=O)c2c[nH]c(-c3n[nH]c4ncccc34)c2)c1 [III-f-49],50%
15,O=S(=O)(Cc1ccccc1)c1c[nH]c(-c2n[nH]c3ncccc23)c1 [III-h-1],14%
16,O=C(NCc1c(F)cccc1Cl)c1c[nH]c(-c2cnc3cnccn23)c1 [VII-b-1],20%
17,O=C(NCc1c(F)cccc1Cl)c1coc(-c2cnc3cccnn23)c1 [VIII-c-1],12%
18,O=C(Nc1cccc(F)c1)c1c[nH]c(-c2n[nH]c3ncccc23)c1 [III-f-13],16%
19,Cc1ccc(CNC(=O)c2c[nH]c(-c3n[nH]c4ncccc34)c2)cc1 [III-f-52],35%

row,SMILES,percent K-Ras protein degradation (single point) at 10 µM
1,O=C(NCc1cccc(Br)c1)c1c[nH]c(-c2n[nH]c3ncccc23)c1 [III-f-41],60%
2,O=C(NCCc1ccccc1)c1c[nH]c(-c2n[nH]c3ncccc23)c1 [III-f-24],13%
3,O=C(Nc1c(F)cccc1Cl)c1cccc(-c2n[nH]c3ncccc23)c1 [III-c-3],16%
4,O=C(NCc1cc(F)ccc1F)c1c[nH]c(-c2n[nH]c3ncccc23)c1 [III-f-56],70%
5,O=C(NCc1cccc(C(F)(F)F)c1)c1csc(-c2n[nH]c3ncccc23)c1 [III-a-3],60%
6,Cc1cccc(CNC(=O)c2c[nH]c(-c3n[nH]c4ncccc34)c2)c1 [III-f-50],40%
7,O=C(NCc1ccc(Cl)c(Cl)c1)c1c[nH]c(-c2n[nH]c3ncccc23)c1 [III-f-4],19%
8,O=C(NCc1c(F)cccc1Cl)c1ccc(-c2cnc3ccccn23)cc1 [IX-e-1],40%
9,O=C(NC1CCCCC1)c1ccc(-c2cnc3cnccn23)s1 [VII-f-3],20%
10,O=C(Nc1ccccc1)c1ccc(-c2cnc3cnccn23)s1 [VII-f-2],30%
11,O=C(NCc1cccc(C(F)(F)F)c1F)c1c[nH]c(-c2n[nH]c3ncccc23)c1 [III-f-60],65%
12,O=C(Nc1ccccc1)c1coc(-c2c[nH]c3ncccc23)c1 [II-b-2],50%
13,O=C(NC1CCCCC1)c1ccc(-c2cnc3cccnn23)s1 [VIII-f-3],15%
14,O=C(NCc1c(F)cccc1Cl)c1ccc(-c2cnc3ccccn23)s1 [IX-f-1],50%
15,Cc1ccc(NC(=O)c2c[nH]c(-c3n[nH]c4ncccc34)c2)cc1 [III-f-16],15%
16,CC(C)Oc1ccc(NC(=O)c2c[nH]c(-c3n[nH]c4ncccc34)c2)cc1 [III-f-15],14%
17,O=C(Nc1ccccc1)c1coc(-c2cnc3cccnn23)c1 [VIII-c-2],10%
18,O=C(NCc1c(F)cccc1Cl)c1ccc(-c2c[nH]c3ccccc23)cc1 [IV-e-1],30%
19,O=C(Nc1ccccc1)c1csc(-c2c[nH]c3ccccc23)c1 [IV-a-2],50%

row,SMILES,percent K-Ras protein degradation (single point) at 10 µM
1,O=C(NC1CCCCC1)c1ccc(-c2cnc3cnccn23)cc1 [VII-e-3],30%
2,O=C(NCc1ccccc1Cl)c1c[nH]c(-c2n[nH]c3ncccc23)c1 [III-f-47],50%
3,COc1ccc(NC(=O)c2c[nH]c(-c3n[nH]c4ncccc34)c2)cc1 [III-f-17],19%
4,O=C(NCc1cc(C(F)(F)F)ccc1F)c1csc(-c2n[nH]c3ccccc23)c1 [I-a-9],30%
5,O=C(Nc1ccccc1)c1c[nH]c(-c2n[nH]c3ncccc23)c1 [III-f-10],18%
6,O=C(NCc1cccc(C(F)(F)F)c1)c1csc(-c2cnc3cccnn23)c1 [VIII-a-2],60%
7,O=C(Nc1ccccc1)c1csc(-c2n[nH]c3ccccc23)c1 [I-a-11],30%
8,O=C(NCc1c(F)cccc1Cl)c1cccc(-c2cnc3ccccn23)c1 [IX-d-1],30%
9,O=C(NCc1ccc(Cl)c(C(F)(F)F)c1)c1c[nH]c(-c2n[nH]c3ncccc23)c1 [III-f-61],50%
10,O=C(NC1CCCCC1)c1csc(-c2c[nH]c3ccccc23)c1 [IV-a-3],35%
11,O=C(Nc1ccccc1)c1coc(-c2cnc3ccccn23)c1 [IX-c-2],40%
12,O=C(NCc1ccc(Br)cc1)c1c[nH]c(-c2n[nH]c3ncccc23)c1 [III-f-43],40%
13,O=S(=O)(NCc1c(F)cccc1Cl)c1c[nH]c(-c2n[nH]c3ncccc23)c1 [III-g-4],12%
14,O=C(Nc1ccc(OC(F)(F)F)cc1)c1c[nH]c(-c2n[nH]c3ncccc23)c1 [III-f-18],15%
15,O=C(NCc1cccc(F)c1)c1c[nH]c(-c2n[nH]c3ncccc23)c1 [III-f-44],70%
16,O=C(NC1CCCCC1)c1c[nH]c(-c2cnc3cccnn23)c1 [VIII-b-3],2%
17,COc1cccc(CNC(=O)c2c[nH]c(-c3n[nH]c4ncccc34)c2)c1 [III-f-53],50%
18,O=C(NCc1cc(C(F)(F)F)ccc1F)c1csc(-c2cnc3cnccn23)c1 [VII-a-3],30%
